From PubChem BioAssay (NCI)
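Five concentrations, 48 hours, 96-well plates. The concentration for 50% growth inhibition is given as GI50. TGI marks complete inhibition of growth.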

How the values were obtained:
Experiment in all cases: NCI-60 cell line screen, 48 h
[1] = test system: MDA-N
[2] = test system: SF-295 CNS
[3] = test system: SN12C renal
[4] = test system: M14 melanoma
[5] = test system: UO-31 renal
[6] = test system: IGROV1 ovarian
[7] = test system: UACC-62 melanoma
[8] = test system: SK-OV-3 ovarian
[9] = test system: SNB-75 CNS
[10] = test system: RXF 393 renal

O=c1[nH]nc(Nc2ccccc2)c2nnn(C3CCCCC3)c12
TGI [1]: > 100 µM | TGI [2]: > 100 µM | TGI [3]: > 100 µM | TGI [4]: > 100 µM | TGI [5]: > 100 µM

CCC(CC)(CO)CNc1cc(Cl)nc(N)n1
TGI [6]: > 100 µM | TGI [1]: > 100 µM | TGI [7]: > 100 µM | TGI [8]: > 100 µM | TGI [2]: > 100 µM | TGI [3]: > 100 µM | TGI [9]: > 100 µM | TGI [5]: > 100 µM | TGI [10]: > 100 µM

Cc1c(Cl)cccc1N=NC(=O)NNc1cccc(Cl)c1C
TGI [6]: 19.6 µM | TGI [1]: 31 µM | TGI [7]: 25.5 µM | TGI [3]: 32.4 µM | TGI [4]: 35.7 µM | TGI [9]: 32.5 µM | TGI [5]: 26.3 µM

CCCCCCCCCCCCCC[n+]1ccc(C(N)=O)cc1
GI50 [6]: 1.05 µM | TGI [6]: 2.91 µM | GI50 [7]: 1.9 µM | TGI [7]: 4.65 µM | GI50 [8]: 2.33 µM | TGI [8]: 10.9 µM | GI50 [2]: 1.76 µM | TGI [2]: 5.06 µM | GI50 [3]: 3.2 µM | TGI [3]: 10.6 µM | GI50 [9]: 1.7 µM | TGI [9]: 4.17 µM | GI50 [5]: 7.65 µM | TGI [5]: 24.3 µM

O=C(O)/C(=C\c1ccc(O)cc1)c1cccc2ccccc12
TGI [6]: > 100 µM | TGI [1]: > 100 µM | TGI [7]: > 100 µM | TGI [2]: > 100 µM | TGI [3]: > 100 µM | TGI [4]: > 100 µM | TGI [9]: > 100 µM | TGI [5]: > 100 µM | TGI [10]: > 100 µM

CCSc1nc(=S)n(-c2ccccc2)c(C)c1C(C)=O
TGI [6]: > 100 µM | TGI [7]: > 100 µM | TGI [8]: > 100 µM | TGI [2]: > 100 µM | TGI [3]: > 100 µM | TGI [4]: > 100 µM | TGI [9]: > 100 µM | TGI [5]: > 100 µM | TGI [10]: > 100 µM

CNC(=O)SCC(NC(=O)CCC(N)C(=O)O)C(=O)NCC(=O)O (stereo unspecified)
TGI [6]: > 100 µM | TGI [7]: > 100 µM | TGI [8]: > 100 µM | TGI [2]: > 100 µM | TGI [3]: > 100 µM | TGI [9]: > 100 µM | TGI [5]: > 100 µM | TGI [10]: > 100 µM

CC(C(=O)c1ccncc1)c1ccccn1 (stereo unspecified)
TGI [6]: > 100 µM | TGI [1]: > 100 µM | TGI [7]: > 100 µM | TGI [8]: > 100 µM | TGI [2]: > 100 µM | TGI [3]: > 100 µM | TGI [4]: > 100 µM | TGI [5]: > 100 µM | TGI [10]: > 100 µM

Cc1cc2n[n+]3[n-]cc(-c4ccccc4)n3c2cc1[N+](=O)[O-]
TGI [6]: > 100 µM | TGI [7]: > 100 µM | TGI [8]: > 100 µM | TGI [2]: > 100 µM | TGI [9]: > 100 µM | TGI [5]: > 100 µM | TGI [10]: > 100 µM

Nc1ccc2ccc(N3CCNCC3)nc2n1
TGI [6]: > 100 µM | TGI [1]: > 100 µM | TGI [7]: > 100 µM | TGI [8]: > 100 µM | TGI [2]: > 100 µM | TGI [3]: > 100 µM | TGI [4]: > 100 µM | TGI [9]: > 100 µM | TGI [5]: > 100 µM

Cc1ccc(S(=O)(=O)C2=c3nc4ccccc4cc3=C3C(=O)c4ccccc4C(=O)C32)cc1 (stereo unspecified)
TGI [6]: > 100 µM | TGI [7]: > 100 µM | TGI [8]: > 100 µM | TGI [3]: > 100 µM | TGI [4]: > 100 µM | TGI [9]: > 100 µM | TGI [5]: > 100 µM

COc1cc(C2C3=C(CCCC3=O)N(c3ccc(C)cc3)C3=C2C(=O)CCC3)c([N+](=O)[O-])cc1OC
TGI [6]: > 100 µM | TGI [7]: > 100 µM | TGI [8]: > 100 µM | TGI [3]: > 100 µM | TGI [4]: > 100 µM | TGI [9]: > 100 µM | TGI [5]: > 100 µM | TGI [10]: > 100 µM
